Measured values taken from patent US10912741B2, “Prevention of liver cancer with safranal-based formulations” (United Arab Emirates University, priority 2019, dated 2021).

How the values were obtained:
[1] = test system: protein carbonyl (P. carbonyl); experiment: Protein carbonyl content in liver homogenate, DEN/2-AAF hepatocarcinogenesis model; format: in vivo, albino Wistar rats; conditions: mean±SEM, 8 rats
Method: The experimental hepatocarcinogenesis model was developed according to a protocol by […] et al. that was adapted for our purposes. To initiate and promote hepatocarcinogenesis, diethylnitrosamine (DEN) and 2-acetylaminofluorene (2-AAF) were used, respectively. For hepatocarcinogenesis initiation in this model, a single DEN dose (200 mg/kg b.wt.) dissolved in saline was injected intraperitoneally. After initiation, all rats underwent one period of 5-days fasting, as mitotic proliferative stimuli. To promote hepatocarcinogenesis, 2-acetylaminofluorene (2-AAF) was introduced in the form of six daily intragastric doses (30 mg/kg in 1% Tween 80); two weeks after DEN treatment. […] at doses of 25 mg/kg by weight (b.wt.) and 50 mg/kg b.wt, was administrated orally to rats. These doses have been reported to suppress chemically-induced oxidative damage in rats. A total of 40 adult male albino Wistar rats were randomly divided into […] (n=8) and were subjected to different treatments. Group 1 (control) was orally administered distilled water (5 ml/kg b.wt.) throughout the experimental duration and were injected with a single dose of saline. Group 2 ([…] only) was subjected to a safranal dose (50 mg/kg b.wt.) through oral administration for the duration of the experimental period. Hepatocarcinogenesis was induced by DEN and promoted by 2-AAF, as reported previously, in group 3 (HCC). […] Glutathione (GSH) content was determined by analyzing liver homogenates, according to the method of Van Dooran et al. The assay depends on measuring yellow 5-thiol-2-nitrobenzoate absorbance at 412 nm. Glutathione-S-transferase (GST) activity was determined using the method of Habig et al. GST catalyzes the conjugation of GSH thiol group with 1-Chloro-2,4-dinitrobenzene (CDNB), which can be measured by determining the increase in absorbance at 340 nm. […] CAT decomposes hydrogen peroxide (H2O2) to oxygen and water; therefore, the activity of CAT was evaluated according to by the exponential decomposition of H2O2 at 240 nm. […] UV-160-Shimadzu recording spectrophotometer was used to record absorbances. […]

[2] = test system: foci of altered hepatocytes (FAH); experiment: Histopathology (H&E) of liver, foci of altered hepatocytes; format: in vivo, albino Wistar rats
Method: The experimental hepatocarcinogenesis model was developed according to a protocol by Espandiaria et al. that was adapted for our purposes. To initiate and promote hepatocarcinogenesis, diethylnitrosamine (DEN) and 2-acetylaminofluorene (2-AAF) were used, respectively. For hepatocarcinogenesis initiation in this model, a single DEN dose (200 mg/kg b.wt.) dissolved in saline was injected intraperitoneally. After initiation, all rats underwent one period of 5-days fasting, as mitotic proliferative stimuli. To promote hepatocarcinogenesis, 2-acetylaminofluorene (2-AAF) was introduced in the form of six daily intragastric doses (30 mg/kg in 1% Tween 80); two weeks after DEN treatment.
Safranal at doses of 25 mg/kg by weight (b.wt.) and 50 mg/kg b.wt, was administrated orally to rats. These doses have been reported to suppress chemically-induced oxidative damage in rats. A total of 40 adult male albino Wistar rats were randomly divided into […] (n=8) and were subjected to different treatments. Group 1 (control) was orally administered distilled water (5 ml/kg b.wt.) throughout the experimental duration and were injected with a single dose of saline. Group 2 (Safranal only) was subjected to a safranal dose (50 mg/kg b.wt.) through oral administration for the duration of the experimental period. […]

CC1=C(C=O)C(C)(C)CC=C1 [Safranal, 2,6,6-trimethylcyclohexa-1,3-diene-1-carbaldehyde]
P.Carbonyl ([1]; HCC (DEN/2-AAF) rats + safranal high dose 50 mg/kg b.wt. oral, 12 weeks): 1.45 ± 0.06 nmol/mg protein | P.Carbonyl ([1]; HCC (DEN/2-AAF) rats + safranal low dose 25 mg/kg b.wt. oral, 12 weeks): 1.61 ± 0.06 nmol/mg protein | P.Carbonyl ([1]; safranal alone 50 mg/kg b.wt. oral, no DEN (group 2)): 1.52 ± 0.03 nmol/mg protein | number and size of hepatocellular nodules (FAH) ([2]; protective groups, DEN-2-AAF rats + low/high doses of safranal (25/50 mg/kg b.wt.)): remarkably decrease in number and size | hepatocellular nodules (FAH) in liver sections ([2]; treatment with safranal alone (group 2, 50 mg/kg b.wt.)): abolished such hepatocellular nodules almost completely
